In patent US20060211739A1, “Use of selective P2X7 receptor antagonists” (priority 2005, published 2006):
Where a name gives a salt, the structure may show the parent alone.

melting point	Compound
172 to 174 °C	Cc1ncccc1Cn1nnnc1-c1cc(Cl)ccc1Cl [Example 44, 3-{[5-(2,5-dichlorophenyl)-1H-tetraazol-1-yl]methyl}-2-methylpyridine]
176 to 178 °C	Cc1noc(C)c1Cn1nnnc1-c1cccc(Cl)c1Cl (as salt: hydrochloride) [Example 38, 5-(2,3-dichlorophenyl)-1-[(3,5-dimethylisoxazol-4-yl)methyl]-1H-tetraazole]
196 to 197 °C	Brc1ccc(-c2nnnn2Cc2ccccc2)s1 (as salt: hydrochloride) [Example 51, 1-benzyl-5-(5-bromothien-2-yl)-1H-tetraazole]
166 to 168 °C	Cn1cncc1Cn1nnnc1-c1cccc(Cl)c1Cl (as salt: hydrochloride) [Example 37, 5-(2,3-dichlorophenyl)-1-[(1-methyl-1H-imidazol-5-yl)methyl]-1H-tetraazole]
176 to 177 °C	Clc1ccc(-c2nnnn2Cc2ccccc2)s1 (as salt: hydrochloride) [Example 50, 1-benzyl-5-(5-chlorothien-2-yl)-1H-tetraazole]

The remaining lines, values behind:

Compound	melting point
Cc1ccnc(C)c1Cn1nnnc1-c1cccc(Cl)c1Cl (as salt: hydrochloride) [Example 30, 3-{[5-(2,3-dichlorophenyl)-1H-tetraazol-1-yl]methyl}-2,4-dimethylpyridine]	146 to 148 °C
Clc1cccc(-c2nnnn2Cc2cscn2)c1Cl (as salt: hydrochloride) [Example 31, 5-(2,3-dichlorophenyl)-1-(1,3-thiazol-4-ylmethyl)-1H-tetraazole]	153 to 154 °C
Cc1nc(C)c(Cn2nnnc2-c2cccc(Cl)c2Cl)s1 (as salt: hydrochloride) [Example 36, 5-(2,3-dichlorophenyl)-1-[(2,4-dimethyl-1,3-thiazol-5-yl)methyl]-1H-tetraazole]	174 to 175 °C
Cc1ccncc1Cn1nnnc1-c1cccc(Cl)c1Cl (as salt: hydrochloride) [Example 29, 3-{[5-(2,3-dichlorophenyl)-1H-tetraazol-1-yl]methyl}-4-methylpyridine]	154 to 156 °C
CCOC(=O)c1nocc1Cn1nnnc1-c1cccc(Cl)c1Cl (as salt: hydrochloride) [Example 34, ethyl 4-{[5-(2,3-dichlorophenyl)-1H-tetraazol-1-yl]methyl}isoxazole-3-carboxylate]	161 to 163 °C
Cc1nc(Cn2nnnc2-c2cccc(Cl)c2Cl)cs1 (as salt: hydrochloride) [Example 32, 5-(2,3-dichlorophenyl)-1-[(2-methyl-1,3-thiazol-4-yl)methyl]-1H-tetraazole]	156 to 158 °C
Cl.Clc1ccc(Cl)c(-c2nnnn2Cc2cccnc2)c1	200 to 201 °C
Cc1ncccc1Cn1nnnc1-c1cccc(Cl)c1Cl.Cl	104 to 105 °C
Cc1[nH]cnc1Cn1nnnc1-c1cccc(Cl)c1Cl (as salt: hydrochloride) [Example 35, 5-(2,3-dichlorophenyl)-1-[(5-methyl-1H-imidazol-4-yl)methyl]-1H-tetraazole]	151 to 153 °C
